One experiment has as its system MMP-2. The experiment is described as follows: MMP-2 zymography. Type of experiment: cell-based. The settings on record: A549 cells; laminin 10 μg/ml 24 hr; FIG. 19. How it is done: In FIG. 18, A549 cells were transfected with the indicated plasmids, incubated in the absence and presence of laminin and their effect on cell migration was determined by measuring the migrated cells in transwell chamber as described. The numbers of the cells passed through the membrane were counted and shown in each panel. The experiments were performed three times. In FIG. 19, the cells treated as above were used to determine MMP-2 activity and level by zymography and Western blotting, respectively. In FIG. 20, Breast carcinoma 4T-1 cells were transfected with the indicated siRNA and subcutaneously injected to the back of Balb/C mice. After 21 days, mouse lungs were isolated and tumor nodules over 1 mm in diameter were counted. In FIG. 21, two different 4T-1 cells stably expressing exogenously introduced KRS (KRS-1 and -2) were also inoculated as above and the tumor nodules were counted 30 days after injection. 4T-1 cells with empty vector were used as control. In FIG. 22, expression levels of KRS and 67LR in lung (upper) and breast (lower) cancer tissues were compared by immunohistochemical staining with their respective antibodies. 39 lung and 40 breast cancer tissues were subjected to immunohistochemical staining with anti-KRS and anti-67LR antibodies and their expression levels were compared with those in normal tissues (9 samples for each tissue). […]

The next experiment has as its system KRS and 67LR. Put plainly: Co-immunoprecipitation of KRS with 67LR. Type of experiment: cell-based, human. The conditions noted are these: 10 ug/ml of laminin for 1 hr; immunoprecipitation with 67LR antibody; FIG. 6. How it is done:
FIGS. 1 to 6 show specific interaction between human KRS and laminin receptor. In FIG. 1, the interaction between full-length human KRS and 37LRP/p40 was determined by yeast two hybrid assay. AIMP1 and AIMP2, the two components of the multi-ARS complex, were used as positive and negative control, respectively. The positive interaction is indicated by blue colony formation on yeast medium containing X-gal. In FIG. 2, 37LRP was synthesized by in vitro translation in the presence of [^35S] methionine and subjected to pull-down with GST-KRS or GST. 37LRP co-precipitated with GST-KRS was detected by autoradiography. In FIG. 3, The peptide regions of KRS and 37LRP involved in their interaction was determined by yeast two hybrid assay as above. […] Myc-KRS was immunoprecipitated with anti-Myc antibody and co-precipitated 67LR and 37LRP were determined by immunoblotting. […] The cells were separated to cytoplasmic and membrane fractions and immunoprecipitated with anti-Myc antibody and co-precipitation of 37LRP and 67LR was determined by Western blotting. […]
In FIG. 7, A549 cells were treated with laminin (10 ug/ml) and the level of 67LR, 37LRP and KRS was determined by Western blotting at the indicated times. […] Myc-KRS was immunoprecipitated and co-precipitation of 67LR was determined by Western blotting. […]

As to “laminin: laminin (Engelbreth-Holm-Swarm murine sarcoma) from Sigma”, the MMP-2 activity entry with MMP-2 is listed as “enhanced”. The “binding of 67LR and KRS” value in the experiment on KRS and 67LR was “increased”.

Values taken from patent US10139394B2, “Method for controlling cancer metastasis or cancer cell migration by modulating the cellular level of lysyl tRNA synthetase” (Medicinal Bioconvergence Research Center, priority 2008, dated 2018).
